The results in this text go back to patent publication US7101885B2, “Piperazinyl-aryloxy and piperazinyl-heteroaryloxy-n-aryl lactams” (Pfizer Inc, priority 2003, dated 2006).

Molecules are shown by their SMILES. Structures can show the parent of a compound that is named as a salt.

With `CN1CCN(c2ccccc2OC2CCN(c3ccc(C(F)(F)F)cc3)C2=O)CC1.Cl` (stereo not drawn), the melting point (in general, the temperature of the solid-liquid transition) fell in the range of 137 to 162 °C. Next, `CN1CCN(c2ncccc2OC2CCN(c3ccc(Br)cc3)C2=O)CC1` (stereo not drawn) (as salt: hydrochloride) [Example 8, 1-(4-Bromo-phenyl)-3-[2-(4-methyl-piperazin-1-yl)-pyridin-3-yloxy]-pyrrolidin-2-one]: 72 to 82 °C. As for `CN1CCN(c2ncccc2OC2CCN(c3ccc(C(C)(C)C)cc3)C2=O)CC1` (stereo not drawn) (as salt: salt) [Example 9, 1-(4-tert-Butyl-phenyl)-3-[2-(4-methyl-piperazin-1-yl)-pyridin-3-yloxy]-pyrrolidin-2-one], the melting point fell in the range of 131 to 164 °C. Molecule `CC(C)Oc1ccc(N2CCC(Oc3cccnc3N3CCN(C)CC3)C2=O)cc1` (stereo not drawn) (as salt: salt) [Example 15, 1-[4-(Isopropoxy)-phenyl]-3-[2-(4-methyl-piperazin-1-yl)-pyridin-3-yloxy]-pyrrolidin-2-one] returned a melting point of 93 to 120 °C.

As for `CN1CCN(c2ncccc2OC2CCN(c3ccc(OC(F)(F)F)cc3)C2=O)CC1` (stereo not drawn) (as salt: salt) [Example 16, 1-[4-(Trifluoromethoxy)-phenyl]-3-[2-(4-methyl-piperazin-1-yl)-pyridin-3-yloxy]-pyrrolidin-2-one], the melting point lay in the range of 113 to 140 °C.

In turn, `CN1CCN(c2ncccc2OC2CCN(c3ccc(C4CCOCC4)cc3)C2=O)CC1` (stereo not drawn) (as salt: salt) [Example 17, 3-[2-(4-Methyl-piperazin-1-yl)-pyridin-3-yloxy]-1-[4-(tetrahydro-pyran-4-yl)-phenyl]-pyrrolidin-2-one] returned a melting point of 219 to 248 °C.

On to `CN1CCN(c2ncccc2OC2CCN(c3ccc(-c4ccon4)cc3)C2=O)CC1` (stereo not drawn) (as salt: salt) [Example 21, 1-[4-(3-Isoxazolyl)-phenyl]-3-[2-(4-methyl-piperazin-1-yl)-pyridin-3-yloxy]-pyrrolidin-2-one], for which the melting point turned out to be 220 °C. `CN1CCN(c2ccccc2OC2CCN(c3ccc(N4CCCC4=O)cc3)C2=O)CC1` (stereo not drawn) [Example 3, 3-[2-(4-Methyl-piperazin-1-yl)-phenoxy]-1-(4-(2-oxo-pyrrolidin-1-yl)-phenyl)-pyrrolidin-2-one] returned a melting point of 164 to 180 °C. The molecule `CN1CCN(c2ccccc2OC2CCCN(c3ccc(N4CCCC4=O)cc3)C2=O)CC1` (stereo not drawn) [Example 5, 3-[2-(4-Methyl-piperazin-1-yl)-phenoxy]-1-[4-(2-oxo-pyrrolidin-1-yl)-phenyl]-piperidin-2-one] registered a melting point of 68 to 75 °C.

In turn, `CN1CCN(c2ccccc2OC2CCCN(c3ccc(N4CCOC4=O)cc3)C2=O)CC1` (stereo not drawn) [Example 6, 3-[2-(4-Methyl-piperazin-1-yl)-phenoxy]-1-[4-(2-oxo-oxazolidin-3-yl)-phenyl]-piperidin-2-one] returned a melting point of 71 to 88 °C.

Molecule `CN1CCN(c2ccccc2OC2CCCN(c3ccc(C(F)(F)F)cc3)C2=O)CC1` (stereo not drawn) [Example 7, 3-[2-(4-Methyl-piperazin-1-yl)-phenoxy]-1-(4-trifluoromethyl-phenyl)-piperidin-2-one] displayed a melting point of 81 to 110 °C. The molecule `CN1CCN(c2ncccc2OC2CCN(c3ccc(N4CCCCC4=O)cc3)C2=O)CC1` (stereo not drawn) [Example 11, 1-(4-{3-[2-(4-Methyl-piperazin-1-yl)-pyridin-3-yloxy]-2-oxo-pyrrolidin-1-yl}-phenyl)-piperidin-2-one] had a melting point of 111 to 149 °C.
